Laboratory results reported in PubChem BioAssay AID328 (DTP/NCI, 2004).
Where “and” joins values, the source holds several entries; their conditions need not be identical. Identical values can stand only once. Inconclusive results and toxic doses are left out. Non-standard residues stand in square brackets, D forms with d. Residues, ends and D or L forms follow the SMILES beside them. ξ: configuration not given here. *: point of attachment. Cbz = O=C(OCc1ccccc1)*; Boc = CC(C)(C)OC(=O)*; ξK = NCCCCC(N)C(=O)O; OBn = c1ccc(CO*)cc1

Tested on: BDF1 mice, P388 leukemia ip, median survival T/C
Assay: NCI In Vivo Anticancer Drug Screen. Data for tumor model P388 Leukemia (intraperitoneal) in B6D2F1 (BDF1) mice
Settings: endpoint: median survival time, higher = longer survival
How it was run: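 Steps: implant the tumour, treat one group with compound and another with vehicle, record survival, then divide treated by control.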

[1] = dose: 100.0 mg/kg/injection, schedule: Q01DX009 (ip), vehicle: saline with Tween-80
[2] = dose: 100.0 mg/kg/injection, schedule: Q04DX003 (ip), vehicle: saline with Tween-80
[3] = dose: 200.0 mg/kg/injection, schedule: Q04DX003 (ip), vehicle: saline with Tween-80
[4] = dose: 400.0 mg/kg/injection, schedule: Q04DX003 (ip), vehicle: saline with Tween-80
[5] = dose: 12.5 mg/kg/injection, schedule: Q01DX009 (ip), vehicle: saline
[6] = dose: 25.0 mg/kg/injection, schedule: Q01DX009 (ip), vehicle: saline
[7] = dose: 100.0 mg/kg/injection, schedule: Q04DX003 (ip), vehicle: Klucel (hydroxypropylcellulose) (HPC)
[8] = dose: 100.0 mg/kg/injection, schedule: Q04DX003 (ip), vehicle: water
[9] = dose: 200.0 mg/kg/injection, schedule: Q04DX003 (ip), vehicle: water
[10] = dose: 200.0 mg/kg/injection, schedule: Q04DX003 (ip), vehicle: Klucel (hydroxypropylcellulose) (HPC)
[11] = dose: 400.0 mg/kg/injection, schedule: Q04DX003 (ip), vehicle: Klucel (hydroxypropylcellulose) (HPC)
[12] = dose: 100.0 mg/kg/injection, schedule: Q01DX009 (ip), vehicle: saline
[13] = dose: 200.0 mg/kg/injection, schedule: Q01DX009 (ip), vehicle: saline
[14] = dose: 400.0 mg/kg/injection, schedule: Q01DX009 (ip), vehicle: saline

SMILES: COc1cc([C@@H]2c3cc4c(cc3[C@H](O)[C@H]3COC(=O)[C@@H]23)OCO4)cc(OC)c1OC
- T/C (dose: 7.7 mg/kg/injection, schedule: Q01DX010 (ip), vehicle: carboxymethylcellulose (CMC)): 115 % of control
- T/C (dose: 12.0 mg/kg/injection, schedule: Q01DX009 (ip), vehicle: Klucel (hydroxypropylcellulose) (HPC)): 166 % of control
- T/C (dose: 18.0 mg/kg/injection, schedule: Q01DX009 (ip), vehicle: Klucel (hydroxypropylcellulose) (HPC)): 185 % of control
- T/C (dose: 27.0 mg/kg/injection, schedule: Q01DX009 (ip), vehicle: Klucel (hydroxypropylcellulose) (HPC)): 195 % of control
- T/C (dose: 30.8 mg/kg/injection, schedule: Q01DX010 (ip), vehicle: carboxymethylcellulose (CMC)): 210 % of control
- T/C (dose: 37.5 mg/kg/injection, schedule: Q04DX003 (ip), vehicle: saline sonified): 113 % of control
- T/C (dose: 40.0 mg/kg/injection, schedule: Q01DX009 (ip), vehicle: Klucel (hydroxypropylcellulose) (HPC)): 233 % of control
- T/C (dose: 60.0 mg/kg/injection, schedule: Q01DX009 (ip), vehicle: Klucel (hydroxypropylcellulose) (HPC)): 252 % of control
- T/C (dose: 75.0 mg/kg/injection, schedule: Q04DX003 (ip), vehicle: saline sonified): 122 % of control
- T/C (dose: 150.0 mg/kg/injection, schedule: Q04DX003 (ip), vehicle: saline sonified): 180 % of control and 204 % of control
- T/C (dose: 225.0 mg/kg/injection, schedule: Q04DX003 (ip), vehicle: saline sonified): 300 % of control

SMILES: C=CCC(CC)C(=O)Cl (stereo not given)
- T/C [1]: 109 % of control
- T/C [2]: 111 % of control
- T/C (dose: 200.0 mg/kg/injection, schedule: Q01DX009 (ip), vehicle: saline with Tween-80): 100 % of control
- T/C [3]: 110 % of control
- T/C (dose: 400.0 mg/kg/injection, schedule: Q01DX009 (ip), vehicle: saline with Tween-80): 100 % of control
- T/C [4]: 105 % of control and 110 % of control

SMILES: COc1c2ccoc2nc2c(OC)c3c(cc12)OCO3
- T/C [5]: 109 % of control
- T/C [6]: 107 % of control
- T/C (dose: 50.0 mg/kg/injection, schedule: Q01DX009 (ip), vehicle: saline): 109 % of control

SMILES: CC(C)(C)OC(=O)NCC(=O)NC(CCCCNC(=O)OCc1ccccc1)C(=O)OCc1ccccc1 (stereo not drawn) (Boc-Gly-[ξK](Cbz)-OBn)
- T/C (dose: 50.0 mg/kg/injection, schedule: Q01DX005 (ip), vehicle: saline with Tween-80): 95 % of control
- T/C (dose: 100.0 mg/kg/injection, schedule: Q01DX005 (ip), vehicle: saline with Tween-80): 90 % of control
- T/C (dose: 200.0 mg/kg/injection, schedule: Q01DX005 (ip), vehicle: saline with Tween-80): 104 % of control

SMILES: Clc1ccc(-c2n[se]c(-c3ccc(Cl)cc3)n2)cc1
- T/C (dose: 0.19 mg/kg/injection, schedule: Q01DX009 (ip), vehicle: saline with Tween-80): 98 % of control
- T/C (dose: 0.39 mg/kg/injection, schedule: Q01DX009 (ip), vehicle: saline with Tween-80): 101 % of control
- T/C (dose: 0.78 mg/kg/injection, schedule: Q01DX009 (ip), vehicle: saline with Tween-80): 95 % of control
- T/C (dose: 1.56 mg/kg/injection, schedule: Q01DX009 (ip), vehicle: saline with Tween-80): 96 % of control

SMILES: CC1CN=C(c2ccc(NC(=O)c3ccc(C(=O)Nc4ccc(C5=NCC(C)N5)cc4)c(N)c3)cc2)N1 (stereo not given)
- T/C (dose: 6.7 mg/kg/injection, schedule: Q04DX003 (ip), vehicle: saline with Tween-80): 150 % of control
- T/C (dose: 10.0 mg/kg/injection, schedule: Q04DX003 (ip), vehicle: saline with Tween-80): 163 % of control
- T/C (dose: 15.0 mg/kg/injection, schedule: Q04DX003 (ip), vehicle: saline with Tween-80): 172 % of control and 177 % of control

SMILES: CC(=O)[O][Hg][c]1c(C)c(C)cc(C)c1C
- T/C [5]: 108 % of control
- T/C [6]: 121 % of control

SMILES: Cc1ncc(CO)c(C2NOCc3ccc(Cl)cc32)c1O (stereo not given)
- T/C (dose: 12.5 mg/kg/injection, schedule: Q01DX009 (ip), vehicle: Klucel (hydroxypropylcellulose) (HPC)): 104 % of control
- T/C (dose: 25.0 mg/kg/injection, schedule: Q01DX009 (ip), vehicle: Klucel (hydroxypropylcellulose) (HPC)): 86 % of control
- T/C (dose: 25.0 mg/kg/injection, schedule: Q04DX003 (ip), vehicle: Klucel (hydroxypropylcellulose) (HPC)): 111 % of control
- T/C (dose: 50.0 mg/kg/injection, schedule: Q04DX003 (ip), vehicle: Klucel (hydroxypropylcellulose) (HPC)): 105 % of control
- T/C [7]: 122 % of control

SMILES: COc1ccc(C(C)=O)cc1OCc1ccccc1
- T/C (dose: 50.0 mg/kg/injection, schedule: Q01DX009 (ip), vehicle: water): 114 % of control
- T/C (dose: 100.0 mg/kg/injection, schedule: Q01DX009 (ip), vehicle: water): 109 % of control
- T/C [8]: 102 % of control
- T/C (dose: 200.0 mg/kg/injection, schedule: Q01DX009 (ip), vehicle: water): 119 % of control
- T/C [9]: 102 % of control
- T/C (dose: 400.0 mg/kg/injection, schedule: Q01DX009 (ip), vehicle: water): 111 % of control
- T/C (dose: 400.0 mg/kg/injection, schedule: Q04DX003 (ip), vehicle: water): 111 % of control

SMILES: Cc1ccc(CSc2ssc(=S)c2-c2ccccc2)cc1
- T/C (dose: 100.0 mg/kg/injection, schedule: Q01DX001 (ip), vehicle: Klucel (hydroxypropylcellulose) (HPC)): 104 % of control
- T/C (dose: 100.0 mg/kg/injection, schedule: Q01DX009 (ip), vehicle: Klucel (hydroxypropylcellulose) (HPC)): 110 % of control
- T/C (dose: 200.0 mg/kg/injection, schedule: Q01DX001 (ip), vehicle: Klucel (hydroxypropylcellulose) (HPC)): 104 % of control
- T/C (dose: 200.0 mg/kg/injection, schedule: Q01DX009 (ip), vehicle: Klucel (hydroxypropylcellulose) (HPC)): 110 % of control
- T/C (dose: 400.0 mg/kg/injection, schedule: Q01DX001 (ip), vehicle: Klucel (hydroxypropylcellulose) (HPC)): 109 % of control
- T/C (dose: 400.0 mg/kg/injection, schedule: Q01DX009 (ip), vehicle: Klucel (hydroxypropylcellulose) (HPC)): 115 % of control

SMILES: C=C(C)Cc1cnc(SCc2ccccc2)[nH]c1=O
- T/C [7]: 104 % of control
- T/C [10]: 109 % of control
- T/C [11]: 113 % of control

SMILES: C/C(=C/CC(=O)O)C(=O)O
- T/C (dose: 12.5 mg/kg/injection, schedule: Q04DX003 (ip), vehicle: water): 119 % of control
- T/C (dose: 25.0 mg/kg/injection, schedule: Q04DX003 (ip), vehicle: water): 97 % of control
- T/C (dose: 50.0 mg/kg/injection, schedule: Q04DX003 (ip), vehicle: water): 97 % of control
- T/C [8]: 103 % of control
- T/C [9]: 122 % of control

SMILES: CS(=O)(=O)Nc1ccccc1O
- T/C (dose: 50.0 mg/kg/injection, schedule: Q01DX009 (ip), vehicle: other): 96 % of control
- T/C (dose: 100.0 mg/kg/injection, schedule: Q01DX009 (ip), vehicle: other): 104 % of control
- T/C (dose: 200.0 mg/kg/injection, schedule: Q01DX009 (ip), vehicle: other): 97 % of control

SMILES: c1ccc(CSC2=NCCS2)cc1
- T/C [12]: 113 % of control
- T/C [13]: 104 % of control
- T/C [14]: 113 % of control

SMILES: C=CCOP1(=O)OCC2OC(n3cnc4c(N)ncnc43)C(O)C2O1 (stereo not given)
- T/C [12]: 88 % of control
- T/C [13]: 100 % of control
- T/C [14]: 88 % of control

SMILES: C[n+]1c2ccccc2nc2c(N)cc(N)cc21
- T/C (dose: 4.8 mg/kg/injection, schedule: Q01DX009 (ip), vehicle: saline with Tween-80): 115 % of control
- T/C (dose: 7.3 mg/kg/injection, schedule: Q01DX009 (ip), vehicle: saline with Tween-80): 115 % of control
- T/C (dose: 26.0 mg/kg/injection, schedule: Q01DX009 (ip), vehicle: saline with Tween-80): 154 % of control
- T/C (dose: 41.0 mg/kg/injection, schedule: Q01DX009 (ip), vehicle: saline with Tween-80): 154 % of control
- T/C (dose: 41.0 mg/kg/injection, schedule: Q01DX009 (ip), vehicle: water): 185 % of control

SMILES: S=c1[nH]nc2n1NC(c1ccccc1)=NN2
- T/C [2]: 91 % of control
- T/C [3]: 87 % of control
- T/C [4]: 95 % of control

SMILES: COC(=O)N1c2ccccc2C=CC1C#N (stereo not given)
- T/C (dose: 12.5 mg/kg/injection, schedule: Q01DX009 (ip), vehicle: saline with Tween-80): 100 % of control
- T/C (dose: 25.0 mg/kg/injection, schedule: Q01DX009 (ip), vehicle: saline with Tween-80): 90 % of control and 100 % of control
- T/C (dose: 25.0 mg/kg/injection, schedule: Q04DX003 (ip), vehicle: saline with Tween-80): 100 % of control
- T/C (dose: 50.0 mg/kg/injection, schedule: Q01DX009 (ip), vehicle: saline with Tween-80): 90 % of control
- T/C (dose: 50.0 mg/kg/injection, schedule: Q04DX003 (ip), vehicle: saline with Tween-80): 109 % of control
- T/C [1]: 100 % of control
- T/C [2]: 100 % of control

SMILES: CN(C)c1ccc(/C=C/c2ccc3ccccc3n2)c(F)c1
- T/C [7]: 90 % of control
- T/C [10]: 95 % of control
- T/C [11]: 90 % of control
